Tested on: 5637
Assay: Inhibition of type-1 pilus-mediated Escherichia coli HB101 adhesion to human 5637 cells after 1 hr
Assay type: cell-based
Conditions: dose or concentration not given here

CN(C)Cc1c(Cc2cccc3ccccc23)c(-c2ccccc2)c2n(c1=O)[C@H](C(=O)O)CS2
inhibition: 90%

— ChEMBL document CHEMBL1221206, “Targeting virulence: a new paradigm for antimicrobial therapy” (Nat Chem Biol, 2007)
